Experimental data published in patent US20150056209A1, “PEPTIDE MIMOTOPES TO OXIDATION SPECIFIC EPITOPES” (The Regents of the University of California, priority 2012, published 2015).
Bridges are numbered along the chain shown (N, C = ends). Where no end group is shown, it is not given here.

What was measured:
[1] = tested on: PC-specific IgM mAb EO6; experiment: Chemiluminescent ELISA, binding of EO6 to plated peptides; parameters: species or system murine; conditions: EO6 5 μg/mL; peptides coated at 5-10 μg/mL
Experimental: (A) ELISA for the binding of LRO4 to BSA, MAA-BSA, the P2 mimotope (ACNNSNMPLC-GGGS) (SEQ ID NO:3) and a scrambled peptide (ACSPNLNMNC-GGGS) (SEQ ID NO:4) of P2 (Scr.P2). Peptides were coated at 20 μg/ml, BSA and MAA-BSA at 5 μg/ml, and binding of indicated concentrations of LRO4 was determined by chemiluminescent ELISA as described in Methods. (B) ELISA for binding of LRO4 and EO6. P1, P2, BSA, MAA-BSA, nLDL, MDA-LDL, and CuOx-LDL were coated at 5-10 μg/mL. Binding of LRO4 and EO6 (both at 5 μg/mL) was determined by chemiluminescent ELISA. (C) Immunocompetition assay for the specificity of LRO4. Binding of 0.5 μg/mL LRO4 to 100 ng/mL captured biotinylated peptides P2 was measured by ELISA in the presence of increasing concentrations of P2 and scrambled P2. […]
Binding of mAb as well as plasma Abs to respective antigens was measured by chemiluminescent ELISA. […] Ab binding was measured using alkaline phosphatase (AP) labeled secondary Abs (described below) followed by chemiluminescent detection. […]

[2] = tested on: apoptotic Jurkat T-cells; experiment: Flow cytometry, LRO4 binding to apoptotic Jurkat T-cells; format: cell-based; conditions: UV-induced apoptotic Jurkat T-cells; increasing concentrations of soluble peptide
Experimental: Binding of LRO4 IgM to apoptotic Jurkat T-cells was assessed by flow cytometry. Apoptosis of Jurkat cells was induced by UV irradiation (UV Stratalinker, Stratagene, USA) at 20 mJ/cm^2, followed by further incubation of the cells in serum free medium for 14-16 hours. After washing in FACS buffer (PBS with 0.1% BSA) 10^6 cells were incubated with 1 μg LRO4 in 100 μl FACS buffer for 30 minutes at 4° C. In parallel experiments, cells were incubated with LRO4 in the presence of increasing concentrations of P1, P2, and an irrelevant control peptide. Following a washing step, cells were stained with FITC-labeled anti-mouse IgM (II/41, BD Biosciences-Pharmingen) in 100 μL staining buffer for 30 minutes at 4° C. in darkness and washed again. Thereafter, cells were incubated with PE-labeled Annexin-V and 7-AAD (BD Bioscience-Pharmingen) in Annexin-V binding buffer for 15 minutes and immediately analyzed by flow cytometry using a BD LSR II analyzer (BD Bioscience, San Jose, Calif., USA). More than 5.0×10^4 cells were acquired per sample, and data analysis was performed using FlowJo software (Tree Star Inc, San Carlos, Calif., USA).

[3] = tested on: LRO4; experiment: Chemiluminescent ELISA, binding of LRO4 to plated or captured peptides; parameters: species or system murine; conditions: peptides directly plated at increasing concentrations; LRO4 5 μg/mL
Experimental: (§1) Binding of mAb as well as plasma Abs to respective antigens was measured by chemiluminescent ELISA. Antigens were coated at 5 μg/mL in PBS/EDTA (pH 7.4). Synthetic peptides were directly coated at 10 μg/mL (P1) or 5 μg/mL (P2) in 0.1M NaHCO3 buffer (pH 8.6), unless indicated differently. Biotinylated peptides were immobilized at indicated concentrations in 0.1M NaHCO3 buffer (pH 8.6) on wells pre-coated with 10 μg/mL neutravidin (Pierce, Rockford, Ill., USA). Ab binding was measured using alkaline phosphatase (AP) labeled secondary Abs (described below) followed by chemiluminescent detection. For the detection of human autoAbs, a 1:400 plasma dilution was used. For human assays, internal controls consisting of high and low standard plasma samples were included on each microtiter plate to detect potential variations between microtiter plates. The intra-assay coefficients of variation for all assays were 10 to 14%.
(§2) The following secondary Abs were used: Alkaline Phosphatase (AP)-labeled goat anti-mouse IgM (μ-chain specific), IgG (γ-chain specific), IgG1 (Sigma-Aldrich) and IgG2c (Southern Biotech). For the detection of human autoAbs AP-labeled goat anti human IgG (γ-chain specific) and IgM (μ-chain specific) (Sigma-Aldrich) were used. Biotin-conjugated Abs were detected with AP-conjugated neutravidin (1:10,000; Pierce).

[4] = tested on: LRO4; experiment: Competition immunoassays for LRO4 binding; parameters: species or system murine; conditions: 0.5 μg/mL LRO4, increasing concentrations of soluble competitor; for competition for LRO4 binding to captured biotinylated P1: 100 ng/mL captured P1; for competition for LRO4 binding to captured biotinylated P2: 100 ng/mL captured P2; for competition for LRO4 binding to coated MAA-BSA: 0.5 μg/mL coated MAA-BSA
Experimental: (§3) The specific binding of LRO4 to mimotopes was determined by competition immunoassays. Fifty μl of 0.5 μg/mL MAA-BSA or 100 ng/mL of biotinylated peptides were plated as described above. LRO4 antibody was incubated in TBS-1% BSA with or without increasing concentrations of competitors (BSA, MAA-BSA, P1, P2 and control peptide) for 30 minutes at RT. Binding of LRO4 was determined by chemiluminescent ELISA. The specificity of human plasma Ab binding to P1 was determined in a similar manner. In preliminary experiments, aliquots of pooled plasma samples (n=26) from a published cohort of healthy subjects were diluted in 1% BSA-TBS to yield a limiting plasma dilution. Diluted plasma (1:1,000) and increasing concentrations of competitors were incubated overnight at 4° C. Samples were then centrifuged at 15,800 g for 45 minutes at 4° C. to pellet immune complexes, and supernatants were analyzed for binding to plated P1 (10 μg/mL) by chemiluminescent ELISA.

[5] = tested on: human MDA-specific IgG Fab IK17; experiment: ELISA for binding of the human monoclonal Fab IK17; conditions: antigens coated; biotinylated IK17 at increasing concentrations
Experimental: ELISA for binding of the human monoclonal Fab IK17. P1, P2, and MAA-BSA were coated onto microtiter plates, and biotinylated IK17 (Biot.IK17) was added at indicated concentrations. Binding was detected by chemiluminescent detection using AP-conjugated neutravidin. Values are given as relative light units (RLU) per 100 ms and represent the mean±SD of triplicate determinations.
as §1, §2

[6] = tested on: human plasma IgG and IgM autoAbs; experiment: Chemiluminescent ELISA of human plasma autoAbs to coated mimotopes; format: binding; conditions: n=18 healthy volunteers, plasma 1:400
Experimental: as §1, with “For human assays, internal controls consisting of high and low standard plasma samples were included on each microtiter plate to detect potential variations between microtiter plates. The intra-assay coefficients of variation for all assays were 10 to 14%.” left out
The following secondary Abs were used: Alkaline Phosphatase (AP)-labeled goat anti-mouse IgM (μ-chain specific), IgG (γ-chain specific), IgG1 (Sigma-Aldrich) and IgG2c (Southern Biotech). […] Biotin-conjugated Abs were detected with AP-conjugated neutravidin (1:10,000; Pierce).
Human plasma samples from two independent studies were analyzed for the presence of anti-peptide Abs. […] For these studies, autoAb titers to MDA-LDL as the antigen have already been reported, to allow ready comparisons to the new data generated here. […]
Statistical analyses were performed with GraphPad Prism 5 for Windows (Graphpad Software, Inc., San Diego, Calif.). […] For continuous variables, differences were evaluated by one-way analysis of variances (ANOVA). […]

[7] = tested on: human plasma IgM and IgG Abs; experiment: Immunocompetition assay, human plasma Ab binding to plated P1; conditions: pooled human plasma 1:1,000; increasing concentrations of soluble competitor
Experimental: as §3

Substance	binding of EO6 to plated peptides [1]	inhibition of LRO4 binding to apoptotic cells [2]	binding of LRO4 to plated peptides [3]	competition for LRO4 binding to captured biotinylated P1 [4]	competition for LRO4 binding to captured biotinylated P2 [4]	competition for LRO4 binding to coated MAA-BSA [4]	binding of IK17 [5]	IgG and IgM titers in plasma of healthy volunteers [6]	inhibition of binding of IgM and IgG Abs to plated P1 [7]
ACNNSNMPLC (disulfide 2-10 (inferred); not fully specified (C-terminus)) [P2]	did not react	fully inhibited	bound by LRO4 in a dose dependent manner	fully competed	fully competed	effectively competed	in a dose-dependent manner	Plasma of all individuals contained both IgG and IgM titers	–
ACSPNLNMNC (ACSPNLNMNCGGGS-NH2; cysteine pairing not given here) [scrambled peptide of P2, reference compound]	–	–	not recognized by LRO4	–	had no effect	–	–	–	–
HSWTNSWMATFL (not fully specified (C-terminus)) [P1]	did not react	–	bound by LRO4 in a dose dependent manner	did not compete	did not compete	did not have an effect	in a dose-dependent manner	Plasma of all individuals contained both IgG and IgM titers	–
IMGVGAVGAGAI (Control peptide) [irrelevant control peptide, reference compound]	–	not	–	had no effect	had no effect	–	–	–	–
MAA-BSA: malondialdehyde-acetaldehyde (MAA)-modified BSA [reference compound]	–	–	–	fully competed	fully competed	effectively competed	bound	–	nearly completely inhibited
